How the values were obtained:
[1] = tested on: AA-induced ear edema; experiment: Arachidonic acid (AA)-induced acute ear edema in mice; format: in vivo, mice (BALB/c ByJ Rj); design: Edema Mean: unit not given here; settings: for reduced AA-induced ear edema in mice by up to: single topical application, highest over 1, 2 and 4 h; for Edema Mean / Inhibition vs AA %: topical with AA 4%
Method: Positive control compound, indomethacin (CD0016), was dissolved in the AA solution at 5% by weight. […] Different compounds at different dosages were tested on 10 groups of animals, each group having 5 mice (see Table 4). […] After the last measurement, the animals were sacrificed by carbon dioxide following a preapproved protocol. The mean of the ear thickness measured from 5 animals in each of the 10 groups was calculated. The anti-inflammatory activity of a test compound was measured by its ability to reduce AA-induced ear edema, i.e., as the percentage of reduction in ear thickness of animals treated with the test compound and AA as compared with that treated with AA alone.

[2] = tested on: TPA-induced ear edema; experiment: TPA-induced ear edema in mice; format: in vivo, mice (BALB/c ByJ Rj); design: Ear Edema Mean: unit not given beside the values; settings: single topical application with TPA 0.01%, 6 h
Method: The edema inducer, TPA, was dissolved in ethanol at 0.01% by weight to obtain a TPA solution (“TPA solution”). […] Positive control compound, betametasone valerate (CD0153), was dissolved in the TPA solution at 0.01% by weight. […] Different compounds at different dosages were tested on 10 groups of animals, each group having 5 mice (see Table 2). [table] The ear thickness of each of the 50 animals was measured at 6 hours after the compound application. After the measurement, the animals were sacrificed by carbon dioxide following a preapproved protocol. The mean of the ear thickness measured from 5 animals in each of the 10 groups was calculated. The anti-inflammatory activity of a test compound was measured by its ability to reduce TPA-induced ear edema, i.e., as the percentage of reduction in ear thickness of animals treated with both the test compound and TPA as compared with that treated with TPA alone.

[3] = CD07805 at 0.2%, 1 h Measurement
[4] = CD07805 at 0.2%, 2 h Measurement
[5] = CD07805 at 0.2%, 4 h Measurement
[6] = CD08100/02 at 0.1%, 1 h Measurement
[7] = CD08100/02 at 0.1%, 2 h Measurement
[8] = CD08100/02 at 0.1%, 4 h Measurement
[9] = CD08100/02 at 0.3%, 1 h Measurement
[10] = CD08100/02 at 0.3%, 2 h Measurement
[11] = CD08100/02 at 0.3%, 4 h Measurement
[12] = CD08100/02 at 1%, 1 h Measurement

Compound: COc1ccc2c(c1)c(CC(=O)O)c(C)n2C(=O)c1ccc(Cl)cc1 [CD0016, indomethacin]
- reduced AA-induced ear edema in mice by up to ([1]; CD0016 at 5%): up to 94.2%
- Edema Mean ([1]; CD0016 at 5%, 1 h Measurement): 0.8
- Inhibition vs AA % ([1]; CD0016 at 5%, 1 h Measurement): 93.1%
- Edema Mean ([1]; CD0016 at 5%, 2 h Measurement): 0.6
- Inhibition vs AA % ([1]; CD0016 at 5%, 2 h Measurement): 94.2%
- Edema Mean ([1]; CD0016 at 5%, 4 h Measurement): 0.4
- Inhibition vs AA % ([1]; CD0016 at 5%, 4 h Measurement): 93.5%

Compound: CCCCC(=O)O[C@]1(C(=O)CO)[C@@H](C)C[C@H]2[C@@H]3CCC4=CC(=O)C=C[C@]4(C)[C@@]3(F)[C@@H](O)C[C@@]21C [CD0153, betametasone valerate]
- Ear Edema Mean ([2]; CD0153 at 0.01%): 0.40
- Inhibition vs TPA (%) ([2]; CD0153 at 0.01%): 97.5%

Compound: Brc1c(NC2=NCCN2)ccc2nccnc12 [CD07805, (5-bromo-quinoxalin-6-yl)-(4,5-dihydro-1H-imidazol-2-yl)-amine]
- Ear Edema Mean ([2]; CD07805 at 0.2%): 8.60
- Inhibition vs TPA (%) ([2]; CD07805 at 0.2%): 46.3%
- reduced AA-induced ear edema in mice by up to ([1]; CD07805 at 0.2%): up to 80.8%
- Edema Mean [1, 3]: 2.8
- Inhibition vs AA % [1, 3]: 75.9%
- Edema Mean [1, 4]: 2
- Inhibition vs AA % [1, 4]: 80.8%
- Edema Mean [1, 5]: 1.6
- Inhibition vs AA % [1, 5]: 74.2%

Compound: O=C(O)Cc1ccccc1Nc1c(Cl)cccc1Cl [CD08100/02, 2-[2-(2,6-dichlorophenylamino)phenyl]acetic acid]
- Ear Edema Mean ([2]; CD08100/02 at 0.1%): 5.80
- Inhibition vs TPA (%) ([2]; CD08100/02 at 0.1%): 63.8%
- Ear Edema Mean ([2]; CD08100/02 at 0.3%): 6.40
- Inhibition vs TPA (%) ([2]; CD08100/02 at 0.3%): 60.0%
- Ear Edema Mean ([2]; CD08100/02 at 1%): 4.80
- Inhibition vs TPA (%) ([2]; CD08100/02 at 1%): 70.0%
- reduced AA-induced ear edema in mice by up to ([1]; CD08100/02 at 0.1%): up to 71.2%
- Edema Mean [1, 6]: 4.2
- Inhibition vs AA % [1, 6]: 63.8%
- Edema Mean [1, 7]: 3
- Inhibition vs AA % [1, 7]: 71.2%
- Edema Mean [1, 8]: 2
- Inhibition vs AA % [1, 8]: 67.7%
- reduced AA-induced ear edema in mice by up to ([1]; CD08100/02 at 0.3%): ≤ 80.6%
- Edema Mean [1, 9]: 3.6
- Inhibition vs AA % [1, 9]: 69.0%
- Edema Mean [1, 10]: 2.2
- Inhibition vs AA % [1, 10]: 78.8%
- Edema Mean [1, 11]: 1.2
- Inhibition vs AA % [1, 11]: 80.6%
- reduced AA-induced ear edema in mice by up to ([1]; CD08100/02 at 1%): ≤ 83.9%
- Edema Mean [1, 12]: 2
- Inhibition vs AA % [1, 12]: 82.8%
- Edema Mean ([1]; CD08100/02 at 1%, 2 h Measurement): 1
- Edema Mean ([1]; CD08100/02 at 1%, 4 h Measurement): 1
